Data from US11547706B2, “Methods and compositions for reducing tactile dysfunction and anxiety associated with autism spectrum disorder, Rett syndrome, and Fragile X syndrome” (President and Fellows of Harvard College, priority 2016, dated 2023).
“Also recorded” adds a separate entry of the source.

Columns and labels:
[1] = tested on: Advillin^Cre; Mecp2^f/y mutant mice and control littermates; assay: Magnitude of startle response to a 125 dB noise after drug injection; type: in vivo, mouse; conditions: Midazolam 2.5 mg/kg injection, compared to animals treated with vehicle
Protocol: (§1) FIG. 15A is a graph showing the startle response of Advillin^Cre; Mecp2^f/y mutant mice and control littermates following injection of: vehicle (saline), Bumetanide (0.2 mg/kg), Midazolam (2.5 mg/kg) or isoguvacine (1 mg/kg). […] FIG. 15B is a graph showing the response to tactile PPI of Advillin^Cre; Mecp2^f/y mutant mice and control littermates following injection of: vehicle (saline), Bumetanide (0.2 mg/kg), Midazolam (2.5 mg/kg) or isoguvacine (1 mg/kg). […] FIG. 15C is a graph showing the response to air puff alone of Advillin^Cre; Mecp2^f/y mutant mice and control littermates following injection of: vehicle (saline), Bumetanide (0.2 mg/kg), Midazolam (2.5 mg/kg) or isoguvacine (1 mg/kg).
(§2) The response of mice to tactile and acoustic startle stimuli, and the ability of a tactile or acoustic stimulus to inhibit startle to a loud acoustic stimulus was measured using a San Diego Instruments startle reflex system (SR-LAB™ Startle Response System). […] Air puffs were administered to the back of the mouse to assess hairy skin sensitivity. […]
(§3) For acoustic PPI, the prepulse was 20 ms in duration and presented 100 ms before the startle pulse (inter-stimulus interval, ISI). […] Whole body flinch, or startle reflex, was quantitated using an accelerometer sensor measuring the amplitude of movement of the animal, within the cylindrical holder.

[2] = tested on: Advillin^Cre; Mecp2^f/y mutant mice; assay: Tactile PPI assay after drug injection; type: in vivo, mouse; conditions: Midazolam 2.5 mg/kg or isoguvacine 1 mg/kg injection
Protocol: as §1, §2, §3

[3] = tested on: Advillin^Cre; Mecp2^f/y mutant mice; assay: Response to air puff stimulus alone after drug injection; type: in vivo, mouse; conditions: Midazolam 2.5 mg/kg or isoguvacine 1 mg/kg injection
Protocol: as §1
The response of mice to tactile and acoustic startle stimuli, and the ability of a tactile or acoustic stimulus to inhibit startle to a loud acoustic stimulus was measured using a San Diego Instruments startle reflex system (SR-LAB™ Startle Response System). […] Air puffs were administered to the back of the mouse to assess hairy skin sensitivity. […] In addition, this prepulse intensity was chosen because it produced significant inhibition of startle reflex at multiple (ISIs). […]

[4] = tested on: large diameter DRG neurons cultured from control mice; assay: Whole cell patch clamp recordings of cultured large diameter DRG neurons; type: cell-based, mouse; conditions: 10 μM isoguvacine, 5 minutes after application
Description: Repeated measures one-way ANOVA, *, p<0.05. […] Student's paired t-test, p<0.05. […] Repeated measures one-way ANOVA, *, p<0.05. […] Student's paired t-test, p<0.05.
These exciting findings prompted us to ask whether peripherally restricted GABAA receptor agonists could also be used to ameliorate tactile hypersensitivity and other behavioral deficits in ASD models. We utilized a peripherally restricted GABAA receptor agonist, isoguvacine, to determine whether augmenting GABAA receptor signaling at DRG cell bodies could reduce excitability of primary somatosensory afferents.

[5] = tested on: large diameter DRG neurons cultured from Shank3B^+/- or Mecp2^STOP/y mice; assay: Whole cell patch clamp recordings of cultured large diameter DRG neurons from mutant mice; type: cell-based, mouse; conditions: 10 μM isoguvacine; for resting membrane potential / rheobase, excitability: neurons from Shank3B^+/- or Mecp2^STOP/y mice
Description: Repeated measures two-way ANOVA with post-hoc Tukey's test: *, p<0.05. […] Repeated measures two-way ANOVA with post-hoc Tukey's test: *, p<0.05. […] Repeated measures two-way ANOVA with post-hoc Tukey's test: *, p<0.05. […] Repeated measures two-way ANOVA with post-hoc Tukey's test: *, p<0.05.
We next determined whether isoguvacine could improve electrophysiological deficits observed in large diameter peripheral somatosensory neurons cultured from Shank3 and Mecp2 mutant mice.

[6] = tested on: Mecp2, Shank3 and Fmr1 mutant mice; assay: Tactile PPI assay in multiple ASD mouse models; type: in vivo; conditions: 1 mg/kg, i.p., acute, 30 minutes before test
Protocol: (§4) Values are expressed as percent of control littermates' performance. Experiments were performed in mutant mice (Advillin^Cre; Mecp2^f/y, Shank3B^+/− or Fmr1^−/y) and control littermates, 30 minutes after an intraperitoneal (i.p.) of either saline (vehicle) or Isoguvacine (1 mg/kg). Two-way ANOVA, with post-hoc Holm-Sidak's test, *, p<0.05, when comparing mutants to control within same treatment; #, p<0.05, when comparing the same genotype across different treatments. FIG. 56B is a graph of response to a light air puff stimulus alone (0.9 PSI, 50 ms). Responses are expressed as a percent of startle response to a 125-B noise. Experiments were performed in mutant mice (Advillin^Cre; Mecp2^f/y, Shank3B^+/− or Fmr1^−/y) and control littermates, 30 minutes after an intraperitoneal (i.p.) of either saline (vehicle) or isoguvacine (1 mg/kg). Two-way ANOVA, with post-hoc Holm-Sidak's test, *, p<0.05, and t, p<0.10, when comparing mutants to control within same treatment; #, p<0.05, when comparing the same genotype across different treatments. FIG. 56C is a graph of magnitude of startle response to a 125-dB noise. […]
(§5) The response of mice to tactile and acoustic startle stimuli, and the ability of a tactile or acoustic stimulus to inhibit startle to a loud acoustic stimulus was measured using a San Diego Instruments startle reflex system (SR-LAB™ Startle Response System). […]

[7] = tested on: mice including Advillin^Cre; Mecp2^floxed mutant mice; assay: Open field test after isoguvacine; type: in vivo, mouse; conditions: 1 mg/kg, i.p.
Protocol: as §4
On the first day of behavioral testing, animals were subjected to the open field test. […] A portion of videos were blindly hand-scored to verify accuracy. Distance traveled and time spent away from walls (time in center) were analyzed per 10-minute video.

[8] = tested on: control mice; assay: Tactile PPI with back hairy skin pretreated with lidocaine; type: in vivo, mouse
Protocol: FIG. 1A is an image showing a smooth textured object (left) and a rough textured object (right) used in the textured NORT. FIG. 1B is a schematic outlining the protocol for the three NORT assays. FIG. 1C is a graph showing the discrimination indices for textured NORT. A positive value indicates preference for the novel object, compared to the familiar object. *, p<0.05. FIG. 1D is a graph showing the discrimination indices for 5 minute control NORT. A positive value indicates preference for the novel object, compared to the familiar object. *, p<0.05. FIG. 1E is a graph showing the discrimination indices for 1 hour control NORT. A positive value indicates preference for the novel object, compared to the familiar object. *, p<0.05. FIG. 1F is a schematic showing the tactile PPI assay. […] Responses are expressed as percent of startle response to a 125 dB noise. *, p<0.01. […] Responses are expressed as percent of startle response to a 125 dB noise. *, p<0.05. […]
as §5

| SMILES | startle amplitude [1] | responses in the tactile PPI assay [2] | response to an air puff stimulus alone [3] | minimal current required to produce an action potential (rheobase), excitability [4] | resting membrane potential [4] | rheobase compared with neurons cultured from control littermates ([5]; neurons from Shank3B^+/- and Mecp2^STOP/y mice) | resting membrane potential [5] | rheobase, excitability [5] | resting membrane potential ([5]; listed as Isoguvacine) | rheobase, excitability ([5]; listed as Isoguvacine) | tactile hypersensitivity, as measured by the tactile PPI assay [6] | time spent in the center of a chamber during the open field test [7] | tactile PPI [8] |
| --- | --- | --- | --- | --- | --- | --- | --- | --- | --- | --- | --- | --- | --- |
| Cc1ncc2n1-c1ccc(Cl)cc1C(c1ccccc1F)=NC2 [Midazolam] | trend toward decreased startle amplitude | trend toward normalized responses | decreased response to an air puff stimulus alone |  |  |  |  |  |  |  |  |  |  |
| O=C(O)C1=CCNCC1 [isoguvacine] |  | trend toward normalized responses | decreased response to an air puff stimulus alone | decreases excitability; also recorded: increase in the amount of minimal current required to produce an action potential | reduces resting membrane potential; also recorded: decrease in resting membrane potential | rheobase was no longer different than neurons cultured from control littermates | significant decrease in resting membrane potential | increase in rheobase | reduces resting membrane potential | decreases excitability | significantly reduces tactile hypersensitivity | enhanced the time spent in the center |  |
| CCN(CC)CC(=O)Nc1c(C)cccc1C [lidocaine] |  |  |  |  |  |  |  |  |  |  |  |  | abolished |
